Experimental data published in patent publication US9066938B2, “GPBP-1 inhibition and its therapeutic use” (Fibrostatin S.L., priority 2012, dated 2015).
Counter-ions that a name gives are not always drawn.

Experiments:
[1] = tested on: A549 cells (CSC/SP and CTAC/MP compartments); test: Doxorubicin content of A549 cells by flow cytometry; type: cell-based, human; details: doxorubicin 1 μM plus T12 50 μM
Protocol: FIG. 10. T12 enhances doxorubicin accumulation, preferentially in CSC/SP cells. A549 cultures were untreated (control) or treated with doxorubicin (1 μM) and/or T12 (50 μM). A, doxorubicin content was measured by flow cytometry using the PE channel. Represented are fluorescence intensity values. The increased amount of doxorubicin is evidenced by the rightwards displacement of the fluorescence peak. B, CSC/SP and CTAC/MP compartments were identified as in FIG. 9 and the doxorubicin content of cells was determined as in A.
A549 cells were suspended at 10^6 cells/mL in culture medium containing 10 mM Hepes (previously warmed at 37° C.). Hoechst 33342 was added at 5 μg/mL and cells incubated in a 37° C. bath with shaking for 90 min in the dark. Before incubation (and after staining) an aliquot of 1 mL was taken and verapamil (50 μM) and fumitremorgin C (10 μM) added. Cells were centrifuged at 300×g for 5 min at 4° C. and suspended in cold medium with 10 mM Hepes. Cells were kept at 4° C. until analysis. Analysis of Hoechst 33342 efflux was assessed using a Flow Cytometer with incident 350 nm ultraviolet light. The resulting fluorescence was measured at two wavelengths using 424/44 BP and 675 LP filters that allow detection of Hoechst blue and red, respectively. […] Doxorubicin content in either population was estimated with incident 488 nm blue light and 585/40 filter. […]

[2] = tested on: A549 cells; test: T12 LC50 in A549 cells cultured without serum to expand the CSC/SP compartment; type: cell-based; details: Homo sapiens
Protocol: FIG. 16. GPBP is over-expressed in A549 cells grown in B-ALI media that allows CSC/SP expansion. Bars represent the relative expression of the indicated genes in A549 cells grown with the indicated culture medium during the indicated times. A549 cells grown in DMEM: Ham's F12 medium supplemented with 2 mM L-glutamine and 10% fetal bovine serum (day 0) were used as reference.
Chemoresistance is widely accepted to depend on epigenetic changes occurring at the CSC/SP compartment (Alberts et al. 2007). Accordingly GPBP-mediated doxorubicin resistance is expected to occur on CSC/SP compartment. To test this we cultured A549 cells in the absence of serum using culture conditions known to expand CSC/SP compartment.

[3] = tested on: A549 cells; type: cell-based
Protocol: FIG. 2. […] Cells were seeded in 96-well plates and treated with the indicated compound combinations. The cellular viability (cell number) was measured with alamarBlue® and arbitrary units of fluorescence after 36 h of treatment (vertical axis).
FIG. 7. […] A549 cells were seeded on 96-well culture plates and after 4 h were treated with the indicated concentrations of doxorubicin in absence or presence of T12 (50 μM) and/or CFTR-inhibitor-172 (25 μM). Cells were cultured for additional 36 h and cell viability assessed as in FIG. 2.
A549 human lung adenocarcinoma cancer cells (CLS Cell Lines Service) were used as an ex vivo model for the assessment of anti-tumor activity of specific compounds. Unless otherwise indicated A549 cells were cultured in DMEM: Ham's F12 medium supplemented with 2 mM L-glutamine and 10% fetal bovine serum. A549 cells resistant to doxorubicin (A549-DR) were obtained treating cells with 1 μM for 4 weeks. A549 cells were transfected with a plasmid that expresses GPBP-1 and further selected with G418 (Invitrogen) to obtain a cell line (A549-GPBP) that constitutively expresses GPBP-1.
Cytotoxicity assays were performed with alamarBlue® reagent (Invitrogen) according to manufacturer's instructions. A549 cells were seeded on 96-well culture plates (7,500 cells/well) and allowed to settle during 4 h. Then, cells were cultured with individual peptidomimetics at concentrations ranging from 0 to 50 μM, in presence of doxorubicin at concentrations ranging from 0 to 10 μM for 36 h. JLSM cells were harvested by treatment with 0.25% trypsin (Lonza) and plated on collagen I coated 96-well black culture plate (Perkin Elmer) at a density of 10.000 cells per cm^2. After 4 h settling, cells were treated with different peptidomimetics (with or without doxorubicin) for 36 h. Subsequently alamarBlue® reagent was added and incubation maintained for 3 h. Fluorescence was measured using 560EX nm/590EM nm filter settings with a SpectraMax GeminiXPS (Molecular Devices). Blank wells containing media were used to determine background fluorescence.
The activity shown for each compound in Table 1 is the factor by which doxorubicin LC50 is reduced by the compound at a 50-μM concentration in A549 cell cultures. […] The symbols −, −/+, +, ++, +++, ++++ in the third column are used to show relative activities of compounds in a simplified way.

[4] = tested on: JLSM cells; test: Cell viability of JLSM primary cultures (lung epidermoid carcinoma); type: cell-based, human; details: 36 h
Protocol: FIG. 14. T12 sharply reduce JLSM cell viability. A and B, JLSM cells were seeded (10.000 cells per cm^2) on collagen-I coated 96-well culture plate. Cells were settled for 4 h and subjected to the indicated treatments and cellular viability assayed after 36 h. Control bars represent cells without T12 or […]. JLSM cells were obtained from a human lung epidermoid carcinoma biopsy following standard procedures. […] Subsequently, explants were further incubated with 1 mL per well of serum-free B-ALITM air-liquid interface medium from CloneticsTM (B-ALI medium). When cells started to grow, explants were removed and cells passed to a collagen I coated flask with fresh medium. Cultures were kept in a humidified 37° C. incubator with 5% (v/v) CO2 and 95% (v/v) air. Cytotoxicity assays were performed with alamarBlue® reagent (Invitrogen) according to manufacturer's instructions. A549 cells were seeded on 96-well culture plates (7,500 cells/well) and allowed to settle during 4 h. Then, cells were cultured with individual peptidomimetics at concentrations ranging from 0 to 50 μM, in presence of doxorubicin at concentrations ranging from 0 to 10 μM for 36 h. […] Fluorescence was measured using 560EX nm/590EM nm filter settings with a SpectraMax […] […] Blank wells containing media were used to determine background fluorescence.

[5] = tested on: CSC/SP compartment of A549 cell cultures; test: Side population (CSC/SP) staining with Hoechst 33342, flow cytometry; type: cell-based, human; details: for cell content of the CSC/SP compartment: single compound
Protocol: FIG. 9. […] A, cultures of A549 cells were incubated with Hoescht 33342 in the absence (−) or presence (+) of verapamil (50 μM) and fumitremorgin C (10 μM). Circled area (R2) denotes the region containing the flow cytometry events representing CSC/SP cells. B, shown are the relative abundance of CSC/SP cells (%) in cell cultures untreated (control) or treated with the indicated compounds.
A549 cells were suspended at 10^6 cells/mL in culture medium containing 10 mM Hepes (previously warmed at 37° C.). Hoechst 33342 was added at 5 μg/mL and cells incubated in a 37° C. bath with shaking for 90 min in the dark. Before incubation (and after staining) an aliquot of 1 mL was taken and verapamil (50 μM) and fumitremorgin C (10 μM) added. Cells were centrifuged at 300×g for 5 min at 4° C. and suspended in cold medium with 10 mM Hepes. Cells were kept at 4° C. until analysis. Analysis of Hoechst 33342 efflux was assessed using a Flow Cytometer with incident 350 nm ultraviolet light. The resulting fluorescence was measured at two wavelengths using 424/44 BP and 675 LP filters that allow detection of Hoechst blue and red, respectively. […] Doxorubicin content in either population was estimated with incident 488 nm blue light and 585/40 filter. Verapamil and fumitremorgin C werer used to identify SP region.

Structure (SMILES) | doxorubicin content of cells versus doxorubicin only [1] | CC50 ([2]; A549, A549 comparison culture (CSC/SP not expanded)) | CC50 ([2]; A549, A549 cultured in the absence of serum, expanded CSC/SP compartment) | A549 cell viability, compound without doxorubicin ([3]; 36 h, alamarBlue) | Activity as enhancer of doxorubicin-induced cell death, relative activity symbol ([3]; compound at 50 μM, A549 cell cultures) | effect on doxorubicin LC50 for A549 cells ([3]; compound combined with doxorubicin) | biological activity on JLSM primary cultures, single compound [4] | CSC/SP compartment relative to untreated cultures, co-treatment ([5]; doxorubicin and T12 co-treatment) | cell content of the CSC/SP compartment [5]
COc1ccc(-c2ccc(-c3cccc(C)c3)c(C)c2)c(CCC(=O)O)c1 [T12, 3-[4″-methoxy-3,2′-dimethyl-(1,1′;4′,1″)terphenyl-2″-yl] propionic acid] | higher doxorubicin content | 125 µM | 15 µM | did not alter cell viability | +++ | reduced doxorubicin LC50 for A549 cells in a dose-dependent manner | highly sensitive | one fourth | reduction
COc1cccc2c1C(=O)c1c(O)c3c(c(O)c1C2=O)C[C@@](O)(C(=O)CO)C[C@@H]3O[C@H]1C[C@H](N)[C@H](O)[C@H](C)O1 [doxorubicin, doxorubicin hydrochloride, reference compound] |  |  |  |  |  |  | virtually resistant |  | reduction
